The source of these data is EP0678293A2, “Composition containing pyridoxine ester, process for the preparation and use thereof” (F. HOFFMANN-LA ROCHE AG, priority 1994, dated 1995).

For data set [1] the following is noted: cited from earlier work; for Löslichkeit in Fetten: Kummerow, J.Am Oil Chem. Soc. 33 1956, 116.
For data set [2] the following is noted: direct use in ointments, creams and other skin preparations; no test described; cited from earlier work.
Data set [3] can be described thus: Solubility of pyridoxine tripropionate in vegetable oil / lipophilic phases.
From the text: 50 Gew% Pyridoxintripropionat werden vorgelegt und in 50 Gew% Pflanzenöl unter starkem Rühren gelöst.

Consider Pyridoxinoctanoat, for which the “Löslichkeit in Pflanzenölen” value in data set [1] (in Pflanzenölen, Sakuragi, Kummerow 1956) is given as at most 1%.

For `CCCCCCCCCCCCCCCC(=O)OCc1cnc(C)c(OC(=O)CCCCCCCCCCCCCCC)c1COC(=O)CCCCCCCCCCCCCCC` [Pyridoxintripalmitat], the “Löslichkeit in Olivenöl” value in data set [1] (bei 3 °C in Olivenöl, Sakuragi, Kummerow 1956) is 0,1%. For the molecule `CC(=O)OCc1cnc(C)c(OC(C)=O)c1COC(C)=O` [Pyridoxintriacetat], the “Löslichkeit in Fetten” value in data set [1] (Sakuragi) is on record as “beinahe unlöslich”. With `Cc1ncc(CO)c(CO)c1O.Cl` [Pyridoxin-hydrochlorid], the “Löslichkeit in unpolaren Flüssigkeiten” value in data set [1] (in unpolaren Flüssigkeiten, background statement) is recorded as “praktisch unlöslich”.

As to `CCC(=O)OCc1cnc(C)c(OC(=O)CC)c1COC(=O)CC` [Pyridoxintripropionat], the “Vitamin B₆ Wirksamkeit” value in data set [2] is on record as “volle”. In data set [3] (50 Gew% Pyridoxintripropionat in 50 Gew% Pflanzenöl, dissolved with vigorous stirring), the “Lösung in Pflanzenöl” value is “homogene Lösung”. Also, the “löslich in Pflanzenöl” value in data set [3] (in Pflanzenöl) was at most 50 Gew.%. Besides, the “Löslichkeit in Fetten” value in data set [1] (Sakuragi) is recorded as “beinahe unlöslich”.
